# Data: article PMC9396645 (Frontiers in Chemistry, 2022)
# Where two headings read alike, the source gives them in different places.
# Legend:
# C4-2 cells = assay: Internalization efficiency / specific cell uptake in C4-2 cells; assay type: cell-based, human
# Description: The specific internalization ratio was determinated in 24-well plates. The plates were previously coated with 0.1% poly-L-lysine in PBS for 20 min and washed with PBS once. C4-2 cells (10^5 cells per analysis) were added to each well and equilibrated overnight. The cells were incubated for 45 min with 250 µL of a 30 nM solution of the ^68Ga-labeled compounds either in a water bath at 37°C or on ice. The PSMA-receptor-blocking agent 2-(phosphonomethyl)pentanedioic acid (2-PMPA; 500 μM; Axxora) was used to verify the specificity of the cellular uptake of the novel compounds. The cells were washed thrice (using 1 ml of ice-cold PBS), followed by an incubation with 0.5 ml of a glycine solution (50 mM in HCl at a pH of 2.8) for 5 min, washed once with 1 ml of ice-cold PBS, and finally lysed with 0.5 ml of 0.3 M NaOH. The lysate was collected, and the radioactivity was measured in a gamma-counter. Triplicate measurements were performed for all experiments.
# [1] = tested on: C4-2 tumor bearing BALB/c nu/nu mice; assay: Small-animal PET imaging in C4-2 tumor bearing mice; assay type: in vivo, mouse; settings: mean SUV from PET, 2 h p.i.
# Description: (§1) Athymic male nude mice (BALB/c nu/nu) were purchased from Charles River at 4‒5 weeks of age (19–23 g). The mice were kept under pathogen-free conditions for 1 week prior to the study. The mice had free access to water and food and were housed with a 12-h/12-h light/dark cycle. The xenografts required for positron emission tomography (PET) imaging and biodistribution studies were obtained by inoculation of 5 × 10^7 C4-2 cells in 50% Matrigel in Opti-MEM I (1 ×) medium. For this purpose, the mice were anesthetized with 2% sevoflurane, and inoculation was performed subcutaneously on the right trunk. When the size of the tumor was approximately 1 cm^3, the studies were performed.
# For small-animal PET imaging, the different ^68Ga-labeled PSMA ligands (0.5 nmol, 20 MBq in approximately 100 µL 0.9% saline) were injected into C4-2 tumor bearing mice. The dynamic PET was recorded in a small animal PET scanner (Siemens Inveon D-PET). The standardized uptake values (SUVs) were obtained from conventional (non-dynamic) PET images. The formula for the SUV was SUV=activity in ROI (Bq/ml) × animal weight (g)/injected dose(Bq)
# Manual delineation of the respective appropriate whole organ (heart, kidneys, bladder, tumor, with an approximate volume of 100–500 µL) yielded the volumes of interest (VOIs). For this purpose, whole organs or parts of the organ/tissue (liver and muscle) were used. The images were reconstructed based on the procedure: OSEM 3D/SP MAP with 16 subsets, two iterations, and an image x-y size: 256, image z size: 161. The data were not modified with a post-processing filter. Analysis of the images and time-activity curves (TACs) was conducted on the Inveon™ Acquisition Workplace (IAW) from Siemens IRW 4.1. […] […] The mean SUVs were plotted over time in order to compare the different radiotracers.
# [2] = tested on: C4-2 tumor bearing BALB/c nu/nu mice; assay: Biodistribution (organ distribution) in C4-2 tumor-bearing mice; assay type: in vivo, mouse; settings: tumor bearing mice, n = 3
# Description: as §1
# Based on the results of the PET imaging, ^68Ga-CA028 and ^68Ga-CA030, the most promising compounds, were chosen for biodistribution studies in C4-2 tumor-bearing mice. The labeled compound (0.05 nmol, 20 MBq) was administered to the mice via tail vein injection. Animals were sacrificed and organs were harvested at the following time points: 20 min, 1, 2, and 4 h p.i. The organs were dissected and weighed, the activity was measured with a γ-counter, and the % ID/g was calculated.
# prostate cancer patients [3] = assay: PSMA-PET/CT of prostate cancer patients; assay type: in vivo, human; settings: patient PET/CT, 20 nmol
# Description: Diagnostic PSMA-PET/computed tomography (CT) examinations were performed 1 and 3 h after antecubital injection of 339 MBq/20 nmol ^68Ga-CA028 or 295 MBq/20 nmol ^68Ga-CA030 per patient, respectively. The method for assessing the biodistribution was performed as previously described by Afshar-Oromieh et al. ([Afshar-Oromieh et al., 2015b]). Applying the clinical standard software Syngo (Siemens), which was used to define the VOIs in the PET images, the activity distributions of the source organs was determined. This reference ([Afshar-Oromieh et al., 2015b]) was also used as a standard of reference for ^68Ga-PSMA-617 (Table 3).
# prostate cancer patients [4] = tested on: prostate cancer patients; parameters: method as in earlier work; settings: patients PET/CT, ref Afshar-Oromieh et al. (2015a) and Afshar-Oromieh et al. (2015b), cited from earlier work
# [5] = ^68Ga-labeled compounds 30 nM, 45 min, 37°C, specificity by 2-PMPA 500 μM, mean ± SD (n = 3)
smiles,measurement,setting,value
O=C([O-])CN1CCN(CC(=O)[O-])CCN(C(CCC(=O)NCc2ccc(NC(=S)NCC3CCC(C(=O)NC(Cc4ccc5ccccc5c4)C(=O)NCCCCC(NC(=O)NC(CCC(=O)O)C(=O)O)C(=O)O)CC3)cc2)C(=O)O)CCN(CC(=O)[O-])CC1.[68Ga+3] (stereo not shown) [^68Ga-CA029],Specific lysate (internalization),C4-2 cells; [5],44.3 ± 3.9 %IA/10^6 cells
same,tumor-to-kidney ratio,[1],0.52
O=C([O-])CN1CCN(CC(=O)[O-])CCN(CC(=O)O)C(Cc2ccc(NC(=S)NCC3CCC(C(=O)NC(Cc4ccc5ccccc5c4)C(=O)NCCCCC(NC(=O)NC(CCC(=O)O)C(=O)O)C(=O)O)CC3)cc2)CN(CC(=O)[O-])CC1.[68Ga+3] (stereo not shown) [^68Ga-CA030],Specific lysate (internalization),C4-2 cells; [5],53.8 ± 5.4 %IA/10^6 cells
same,Organ distribution Blood,[2]; 20 min,4.33 ± 0.51 % ID/g
same,Organ distribution Brain,[2]; 20 min,0.08 ± 0.01 % ID/g
same,Organ distribution Heart,[2]; 20 min,1.29 ± 0.30 % ID/g
same,Organ distribution Kidneys,[2]; 20 min,63.89 ± 5.72 % ID/g
same,Organ distribution Liver,[2]; 20 min,1.04 ± 0.18 % ID/g
same,Organ distribution Lung,[2]; 20 min,2.63 ± 0.89 % ID/g
same,Organ distribution Muscle,[2]; 20 min,1.39 ± 1.30 % ID/g
same,Organ distribution Small intestine,[2]; 20 min,1.00 ± 0.38 % ID/g
same,Organ distribution Spleen,[2]; 20 min,8.37 ± 0.47 % ID/g
same,Organ distribution Tumor,[2]; 20 min,5.17 ± 1.48 % ID/g
same,Organ distribution Blood,[2]; 1 h,3.59 ± 1.52 % ID/g
same,Organ distribution Brain,[2]; 1 h,0.08 ± 0.02 % ID/g
same,Organ distribution Heart,[2]; 1 h,1.03 ± 0.36 % ID/g
same,Organ distribution Kidneys,[2]; 1 h,46.39 ± 23.44 % ID/g
same,Organ distribution Liver,[2]; 1 h,1.52 ± 0.61 % ID/g
same,Organ distribution Lung,[2]; 1 h,2.74 ± 0.72 % ID/g
same,Organ distribution Muscle,[2]; 1 h,0.63 ± 0.21 % ID/g
same,Organ distribution Small intestine,[2]; 1 h,0.92 ± 0.37 % ID/g
same,Organ distribution Spleen,[2]; 1 h,2.86 ± 1.86 % ID/g
same,Organ distribution Tumor,[2]; 1 h,5.36 ± 2.21 % ID/g
same,Organ distribution Blood,[2]; 2 h,1.42 ± 0.61 % ID/g
same,Organ distribution Brain,[2]; 2 h,0.04 ± 0.02 % ID/g
same,Organ distribution Heart,[2]; 2 h,0.40 ± 0.09 % ID/g
same,Organ distribution Kidneys,[2]; 2 h,20.19 ± 7.92 % ID/g
same,Organ distribution Liver,[2]; 2 h,0.81 ± 0.15 % ID/g
same,Organ distribution Lung,[2]; 2 h,1.08 ± 0.42 % ID/g
same,Organ distribution Muscle,[2]; 2 h,0.28 ± 0.03 % ID/g
same,Organ distribution Small intestine,[2]; 2 h,0.75 ± 0.06 % ID/g
same,Organ distribution Spleen,[2]; 2 h,1.39 ± 0.47 % ID/g
same,Organ distribution Tumor,[2]; 2 h,4.31 ± 0.30 % ID/g
same,Organ distribution Blood,[2]; 4 h,0.39 ± 0.14 % ID/g
same,Organ distribution Brain,[2]; 4 h,0.01 ± 0.00 % ID/g
same,Organ distribution Heart,[2]; 4 h,0.16 ± 0.05 % ID/g
same,Organ distribution Kidneys,[2]; 4 h,6.17 ± 0.82 % ID/g
same,Organ distribution Liver,[2]; 4 h,0.50 ± 0.14 % ID/g
same,Organ distribution Lung,[2]; 4 h,0.34 ± 0.10 % ID/g
same,Organ distribution Muscle,[2]; 4 h,0.17 ± 0.02 % ID/g
same,Organ distribution Small intestine,[2]; 4 h,0.21 ± 0.09 % ID/g
same,Organ distribution Spleen,[2]; 4 h,0.48 ± 0.09 % ID/g
same,Organ distribution Tumor,[2]; 4 h,2.69 ± 0.88 % ID/g
same,tumor-to-kidney ratio,[1],0.33
same,SUV mean Bone metastasis,"prostate cancer patients [3]; first listed bone metastasis, 1 h p.i.",27.2
same,SUV mean Bone metastasis,"prostate cancer patients [3]; first listed bone metastasis, 3 h p.i.",37.7
same,"SUV mean Blood pool, mediastinal",prostate cancer patients [3]; 1 h p.i.,5.6
same,SUV mean Colon,prostate cancer patients [3]; 1 h p.i.,4.9
same,SUV mean Gluteal muscle,prostate cancer patients [3]; 1 h p.i.,0.8
same,SUV mean Kidneys,prostate cancer patients [3]; 1 h p.i.,13.4
same,SUV mean Lacrimal gland,prostate cancer patients [3]; 1 h p.i.,7.1
same,SUV mean Liver,prostate cancer patients [3]; 1 h p.i.,5.8
same,SUV mean Nasal mucosa,prostate cancer patients [3]; 1 h p.i.,3.3
same,SUV mean Parotid gland,prostate cancer patients [3]; 1 h p.i.,6.1
same,SUV mean Proximal small intestine,prostate cancer patients [3]; 1 h p.i.,4.1
same,SUV mean Spleen,prostate cancer patients [3]; 1 h p.i.,7.2
same,SUV mean Sublingual gland,prostate cancer patients [3]; 1 h p.i.,4.1
same,SUV mean Submandibular gland,prostate cancer patients [3]; 1 h p.i.,8.7
same,"SUV mean Blood pool, mediastinal",prostate cancer patients [3]; 3 h p.i.,4.5
same,SUV mean Colon,prostate cancer patients [3]; 3 h p.i.,4.7
same,SUV mean Gluteal muscle,prostate cancer patients [3]; 3 h p.i.,0.7
same,SUV mean Kidneys,prostate cancer patients [3]; 3 h p.i.,16.5
same,SUV mean Lacrimal gland,prostate cancer patients [3]; 3 h p.i.,9.0
same,SUV mean Liver,prostate cancer patients [3]; 3 h p.i.,5.9
same,SUV mean Nasal mucosa,prostate cancer patients [3]; 3 h p.i.,3.8
same,SUV mean Parotid gland,prostate cancer patients [3]; 3 h p.i.,6.7
same,SUV mean Proximal small intestine,prostate cancer patients [3]; 3 h p.i.,5.0
same,SUV mean Spleen,prostate cancer patients [3]; 3 h p.i.,6.1
same,SUV mean Sublingual gland,prostate cancer patients [3]; 3 h p.i.,4.9
same,SUV mean Submandibular gland,prostate cancer patients [3]; 3 h p.i.,11.3
same,SUV mean Bone metastasis,"prostate cancer patients [3]; second listed bone metastasis, 1 h p.i.",30.9
same,SUV mean Bone metastasis,"prostate cancer patients [3]; second listed bone metastasis, 3 h p.i.",32.6
same,SUV mean Bone metastasis,"prostate cancer patients [3]; third listed bone metastasis, 1 h p.i.",31.0
same,SUV mean Bone metastasis,"prostate cancer patients [3]; third listed bone metastasis, 3 h p.i.",33.1
O=C([O-])CN1CCN(CC(=O)[O-])CCN(CC(=O)NCC2CCC(C(=O)NC(Cc3ccc4ccccc4c3)C(=O)NCCCCC(NC(=O)NC(CCC(=O)O)C(=O)O)C(=O)O)CC2)CCN(CC(=O)[O-])CC1.[68Ga+3] (stereo not shown) [^68Ga-PSMA-617],Specific lysate (internalization),C4-2 cells; [5],15.5 ± 3.1 %IA/10^6 cells
same,"SUV mean Blood pool, mediastinal",prostate cancer patients [4]; 1 h p.i.,2.5
same,SUV mean Bone metastasis,prostate cancer patients [4]; 1 h p.i.,9.4
same,SUV mean Colon,prostate cancer patients [4]; 1 h p.i.,3.5
same,SUV mean Gluteal muscle,prostate cancer patients [4]; 1 h p.i.,0.7
same,SUV mean Kidneys,prostate cancer patients [4]; 1 h p.i.,15.6
same,SUV mean Lacrimal gland,prostate cancer patients [4]; 1 h p.i.,4.9
same,SUV mean Liver,prostate cancer patients [4]; 1 h p.i.,3.3
same,SUV mean Lymph node,prostate cancer patients [4]; 1 h p.i.,7.1
same,SUV mean Nasal mucosa,prostate cancer patients [4]; 1 h p.i.,2.9
same,SUV mean Parotid gland,prostate cancer patients [4]; 1 h p.i.,10.4
same,SUV mean Proximal small intestine,prostate cancer patients [4]; 1 h p.i.,4.7
same,SUV mean Spleen,prostate cancer patients [4]; 1 h p.i.,4.3
same,SUV mean Sublingual gland,prostate cancer patients [4]; 1 h p.i.,4.6
same,SUV mean Submandibular gland,prostate cancer patients [4]; 1 h p.i.,10
same,"SUV mean Blood pool, mediastinal",prostate cancer patients [4]; 3 h p.i.,2.4
same,SUV mean Bone metastasis,prostate cancer patients [4]; 3 h p.i.,6.3
same,SUV mean Colon,prostate cancer patients [4]; 3 h p.i.,4.0
same,SUV mean Gluteal muscle,prostate cancer patients [4]; 3 h p.i.,0.7
same,SUV mean Kidneys,prostate cancer patients [4]; 3 h p.i.,17.0
same,SUV mean Lacrimal gland,prostate cancer patients [4]; 3 h p.i.,5.9
same,SUV mean Liver,prostate cancer patients [4]; 3 h p.i.,2.7
same,SUV mean Lymph node,prostate cancer patients [4]; 3 h p.i.,13.5
same,SUV mean Nasal mucosa,prostate cancer patients [4]; 3 h p.i.,3.4
same,SUV mean Parotid gland,prostate cancer patients [4]; 3 h p.i.,13.1
same,SUV mean Proximal small intestine,prostate cancer patients [4]; 3 h p.i.,5.5
same,SUV mean Spleen,prostate cancer patients [4]; 3 h p.i.,3.5
same,SUV mean Sublingual gland,prostate cancer patients [4]; 3 h p.i.,4.0
same,SUV mean Submandibular gland,prostate cancer patients [4]; 3 h p.i.,12.4
"O=C(O)CC[C@H](NC(=O)N[C@@H](CCCCNC(=O)[C@H](Cc1ccc2ccccc2c1)NC(=O)[C@H]1CC[C@H](CNC(=O)CN2CCN(CC(=O)O)CCN(CC(=O)O)CCN(CC(=O)O)CC2)CC1)C(=O)O)C(=O)O [PSMA-617, reference compound]",specific internalization in C4-2 cells,C4-2 cells; Table 2,15.6 % ID/10^6 cells
same,Specific cell surface,C4-2 cells; [5],45.18 ± 3.61 %IA/10^6cells
same,Specific lysate (internalization),C4-2 cells; [5],15.55 ± 3.07 %IA/10^6 cells
